Values after ≈ are worked out from the molar mass of the structure shown.
How the values were obtained:
Wee1-like protein kinase [1] = molecular target: T1, Wee1-like protein kinase (Homo sapiens, UniProt P30291); test: Binding affinity to human WEE1 assessed as displacement of immobilized ligand by KINOMEscan scanMAX assay relative to control
[2] = molecular target: T2, Hepatocyte growth factor receptor (Homo sapiens, UniProt P08581); test: Inhibition of human MET in presence of ATP at Km level
T2 sequence (P08581 whole entry): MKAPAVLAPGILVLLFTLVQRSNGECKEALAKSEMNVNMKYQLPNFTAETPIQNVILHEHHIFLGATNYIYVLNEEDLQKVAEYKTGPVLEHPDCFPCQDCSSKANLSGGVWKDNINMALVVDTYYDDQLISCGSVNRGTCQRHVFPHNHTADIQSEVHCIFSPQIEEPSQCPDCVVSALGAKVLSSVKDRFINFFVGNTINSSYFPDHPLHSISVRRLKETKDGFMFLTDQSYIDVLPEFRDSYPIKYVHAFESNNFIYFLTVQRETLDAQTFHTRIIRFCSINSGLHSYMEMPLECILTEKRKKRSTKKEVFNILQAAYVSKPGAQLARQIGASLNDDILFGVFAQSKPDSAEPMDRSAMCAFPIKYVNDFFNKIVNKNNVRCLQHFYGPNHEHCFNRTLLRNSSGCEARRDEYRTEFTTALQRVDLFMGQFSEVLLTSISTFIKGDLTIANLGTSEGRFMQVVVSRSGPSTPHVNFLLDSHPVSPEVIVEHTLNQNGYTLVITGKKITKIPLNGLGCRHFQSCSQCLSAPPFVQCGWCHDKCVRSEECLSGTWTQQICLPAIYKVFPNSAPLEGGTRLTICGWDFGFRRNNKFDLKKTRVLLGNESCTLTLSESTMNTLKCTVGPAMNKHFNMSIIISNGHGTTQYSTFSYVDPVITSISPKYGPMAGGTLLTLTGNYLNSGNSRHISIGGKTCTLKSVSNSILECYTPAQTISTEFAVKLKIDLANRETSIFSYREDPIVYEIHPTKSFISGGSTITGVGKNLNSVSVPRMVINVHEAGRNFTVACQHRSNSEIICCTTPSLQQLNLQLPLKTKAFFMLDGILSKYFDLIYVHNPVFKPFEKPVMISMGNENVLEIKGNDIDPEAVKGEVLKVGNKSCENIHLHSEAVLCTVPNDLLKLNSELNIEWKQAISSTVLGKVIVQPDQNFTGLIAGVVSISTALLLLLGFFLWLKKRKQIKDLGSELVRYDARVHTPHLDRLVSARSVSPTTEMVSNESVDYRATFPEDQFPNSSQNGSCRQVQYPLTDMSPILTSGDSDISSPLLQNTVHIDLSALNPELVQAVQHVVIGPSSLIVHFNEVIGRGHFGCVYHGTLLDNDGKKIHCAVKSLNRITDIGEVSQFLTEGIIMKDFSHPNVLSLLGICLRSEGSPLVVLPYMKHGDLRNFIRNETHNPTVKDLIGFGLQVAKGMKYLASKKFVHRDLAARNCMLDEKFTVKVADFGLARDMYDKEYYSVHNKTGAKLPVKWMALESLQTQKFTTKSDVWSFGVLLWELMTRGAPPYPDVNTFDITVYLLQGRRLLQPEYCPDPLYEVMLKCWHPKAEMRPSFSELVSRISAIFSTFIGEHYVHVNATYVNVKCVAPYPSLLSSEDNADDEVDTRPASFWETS

[3] = molecular target: T3, Serine/threonine-protein kinase pim-2 (Homo sapiens, UniProt Q9P1W9); test: Inhibition of human PIM2 in presence of ATP at Km level
T3 sequence (Q9P1W9 whole entry): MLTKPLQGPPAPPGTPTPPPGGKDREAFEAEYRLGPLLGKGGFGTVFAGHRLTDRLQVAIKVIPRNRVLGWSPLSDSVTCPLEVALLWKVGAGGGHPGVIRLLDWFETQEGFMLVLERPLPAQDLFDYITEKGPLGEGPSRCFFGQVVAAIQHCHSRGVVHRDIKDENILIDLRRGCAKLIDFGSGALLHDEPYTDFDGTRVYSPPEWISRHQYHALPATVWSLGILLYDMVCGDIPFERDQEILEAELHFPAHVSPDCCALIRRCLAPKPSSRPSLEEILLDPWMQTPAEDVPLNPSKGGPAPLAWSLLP

[4] = molecular target: T4, Serine/threonine-protein kinase Nek6 (Homo sapiens, UniProt Q9HC98); test: Binding affinity to human NEK6 assessed as displacement of immobilized ligand by KINOMEscan scanMAX assay relative to control
T4 sequence (Q9HC98 whole entry): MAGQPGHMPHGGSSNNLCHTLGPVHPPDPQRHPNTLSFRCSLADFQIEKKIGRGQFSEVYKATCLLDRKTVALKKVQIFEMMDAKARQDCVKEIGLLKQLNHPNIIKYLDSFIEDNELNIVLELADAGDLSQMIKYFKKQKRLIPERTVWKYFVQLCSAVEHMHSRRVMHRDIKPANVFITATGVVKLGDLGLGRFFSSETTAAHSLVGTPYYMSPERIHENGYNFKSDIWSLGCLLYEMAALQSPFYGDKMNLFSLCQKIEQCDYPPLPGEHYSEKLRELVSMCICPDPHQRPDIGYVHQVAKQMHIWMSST

[5] = Kinetic solubility in pH 7.4 PBS; format: physicochemical; settings: read-out: Kinetic_solubility
[6] = molecular target: T5, Serine/threonine-protein kinase 17B (Homo sapiens, UniProt O94768); test: Binding affinity to human STK17B assessed as displacement of immobilized ligand by KINOMEscan scanMAX assay relative to control
T5 sequence (O94768 whole entry): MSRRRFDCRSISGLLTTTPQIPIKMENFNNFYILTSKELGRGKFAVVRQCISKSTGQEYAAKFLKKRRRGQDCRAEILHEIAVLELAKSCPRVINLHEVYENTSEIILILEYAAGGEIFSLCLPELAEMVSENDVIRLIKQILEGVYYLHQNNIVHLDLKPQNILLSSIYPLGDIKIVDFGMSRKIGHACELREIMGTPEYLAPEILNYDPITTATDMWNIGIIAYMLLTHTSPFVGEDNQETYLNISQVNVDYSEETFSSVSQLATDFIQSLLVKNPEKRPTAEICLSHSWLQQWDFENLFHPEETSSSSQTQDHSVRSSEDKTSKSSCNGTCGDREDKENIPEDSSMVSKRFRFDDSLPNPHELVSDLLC

[7] = molecular target: T6, Serine/threonine-protein kinase 38-like (Homo sapiens, UniProt Q9Y2H1); test: Binding affinity to human STK38L incubated for 2 hrs by nano-BRET assay based cellular target engagement assay
T6 sequence (Q9Y2H1 whole entry): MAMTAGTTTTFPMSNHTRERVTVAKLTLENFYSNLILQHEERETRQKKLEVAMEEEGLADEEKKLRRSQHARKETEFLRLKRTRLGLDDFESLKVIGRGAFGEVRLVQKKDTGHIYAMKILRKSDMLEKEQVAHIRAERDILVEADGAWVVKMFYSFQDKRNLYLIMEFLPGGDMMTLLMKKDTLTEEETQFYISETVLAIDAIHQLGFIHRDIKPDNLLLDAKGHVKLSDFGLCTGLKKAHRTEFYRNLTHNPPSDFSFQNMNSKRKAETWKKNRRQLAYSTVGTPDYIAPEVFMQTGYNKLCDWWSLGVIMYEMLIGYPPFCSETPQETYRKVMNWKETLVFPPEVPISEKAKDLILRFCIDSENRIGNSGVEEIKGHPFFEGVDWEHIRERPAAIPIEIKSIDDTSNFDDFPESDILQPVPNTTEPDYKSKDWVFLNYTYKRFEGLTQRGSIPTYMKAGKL

Aurora kinase B [8] = molecular target: T7, Aurora kinase B (Homo sapiens, UniProt Q96GD4); test: Binding affinity to human AURKB incubated for 2 hrs by nano-BRET assay based cellular target engagement assay
T7 sequence (Q96GD4 whole entry): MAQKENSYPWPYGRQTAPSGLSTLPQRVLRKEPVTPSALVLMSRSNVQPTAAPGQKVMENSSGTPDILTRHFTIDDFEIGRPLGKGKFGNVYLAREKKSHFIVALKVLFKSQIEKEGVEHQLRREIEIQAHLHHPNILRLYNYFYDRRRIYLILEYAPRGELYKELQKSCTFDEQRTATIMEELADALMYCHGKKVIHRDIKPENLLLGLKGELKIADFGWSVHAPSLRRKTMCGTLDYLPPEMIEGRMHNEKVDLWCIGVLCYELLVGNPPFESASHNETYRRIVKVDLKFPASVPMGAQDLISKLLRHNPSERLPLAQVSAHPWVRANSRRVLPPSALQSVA

Aurora kinase B [9] = molecular target: T7, Aurora kinase B; test: Inhibition of human AURKB in presence of ATP at Km level
[10] = molecular target: T5, Serine/threonine-protein kinase 17B
[11] = molecular target: T4, Serine/threonine-protein kinase Nek6; test: Inhibition of human NEK6 in presence of ATP at Km level
[12] = molecular target: T6, Serine/threonine-protein kinase 38-like; test: Inhibition of human STK38L in presence of ATP at Km level
[13] = molecular target: T3, Serine/threonine-protein kinase pim-2; test: Binding affinity to human PIM2 assessed as displacement of immobilized ligand by KINOMEscan scanMAX assay relative to control
[14] = molecular target: T8, Serine/threonine-protein kinase 17A (Homo sapiens, UniProt Q9UEE5); test: Binding affinity to human STK17A incubated for 2 hrs by nano-BRET assay based cellular target engagement assay
T8 sequence (Q9UEE5 whole entry): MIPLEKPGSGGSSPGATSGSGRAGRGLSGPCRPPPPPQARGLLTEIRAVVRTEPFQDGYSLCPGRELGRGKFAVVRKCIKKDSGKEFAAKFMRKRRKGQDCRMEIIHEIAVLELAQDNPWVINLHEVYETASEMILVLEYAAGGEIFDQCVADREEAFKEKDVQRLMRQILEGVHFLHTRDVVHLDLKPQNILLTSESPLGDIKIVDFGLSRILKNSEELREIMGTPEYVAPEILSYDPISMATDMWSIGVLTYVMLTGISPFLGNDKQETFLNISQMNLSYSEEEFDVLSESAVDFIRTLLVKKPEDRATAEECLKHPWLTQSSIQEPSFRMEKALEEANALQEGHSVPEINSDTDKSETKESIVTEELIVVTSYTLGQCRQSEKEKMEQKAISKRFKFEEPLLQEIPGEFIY

[15] = molecular target: T6, Serine/threonine-protein kinase 38-like; test: Binding affinity to human STK38L assessed as displacement of immobilized ligand by KINOMEscan scanMAX assay relative to control
[16] = molecular target: T5, Serine/threonine-protein kinase 17B; test: Inhibition of N-terminal His-tagged STK17B kinase domain (25 to 329 residues) (unknown origin) expressed in Escherichia coli incubated for 90 mins by Kinase seeker split luciferase assay
[17] = molecular target: T5, Serine/threonine-protein kinase 17B; test: Inhibition of human STK17B in presence of ATP at Km level
[18] = molecular target: T2, Hepatocyte growth factor receptor; test: Binding affinity to human MET assessed as displacement of immobilized ligand by KINOMEscan scanMAX assay relative to control
Aurora kinase B [19] = molecular target: T7, Aurora kinase B; test: Binding affinity to human AURKB assessed as displacement of immobilized ligand by KINOMEscan scanMAX assay relative to control
[20] = molecular target: T9, Calcium/calmodulin-dependent protein kinase kinase 2 (Homo sapiens, UniProt Q96RR4); test: Binding affinity to human CAMKK2 assessed as displacement of immobilized ligand by KINOMEscan scanMAX assay relative to control
T9 sequence (Q96RR4 whole entry): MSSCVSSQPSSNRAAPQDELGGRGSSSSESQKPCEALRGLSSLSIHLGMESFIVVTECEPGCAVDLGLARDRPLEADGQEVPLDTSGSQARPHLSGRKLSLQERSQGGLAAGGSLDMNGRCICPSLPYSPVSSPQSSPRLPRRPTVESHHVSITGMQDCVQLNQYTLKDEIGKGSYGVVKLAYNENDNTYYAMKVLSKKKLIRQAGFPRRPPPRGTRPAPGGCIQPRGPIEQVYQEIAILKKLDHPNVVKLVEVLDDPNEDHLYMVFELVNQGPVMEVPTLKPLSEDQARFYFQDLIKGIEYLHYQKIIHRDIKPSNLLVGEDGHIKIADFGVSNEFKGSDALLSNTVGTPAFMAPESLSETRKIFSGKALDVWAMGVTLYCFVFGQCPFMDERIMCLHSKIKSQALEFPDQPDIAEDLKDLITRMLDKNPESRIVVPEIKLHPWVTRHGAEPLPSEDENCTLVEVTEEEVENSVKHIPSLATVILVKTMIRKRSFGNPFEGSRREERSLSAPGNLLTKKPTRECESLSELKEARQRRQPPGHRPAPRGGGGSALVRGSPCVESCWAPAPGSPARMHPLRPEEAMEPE

Wee1-like protein kinase [21] = molecular target: T1, Wee1-like protein kinase; test: Inhibition of human WEE1 in presence of ATP at Km level
[22] = molecular target: T8, Serine/threonine-protein kinase 17A; test: Inhibition of human STK17A in presence of ATP at Km level
[23] = molecular target: T9, Calcium/calmodulin-dependent protein kinase kinase 2; test: Inhibition of human CAMKK2 in presence of ATP at Km level
[24] = molecular target: T5, Serine/threonine-protein kinase 17B; test: Binding affinity to N-terminal His-tagged STK17B kinase domain (25 to 329 residues) (unknown origin) expressed in Escherichia coli by KINOMEscan scanMAX assay
[25] = Stability in mouse liver microsomes assessed as compound remaining at 0.1 mM in presence of NADPH regeneration system after 30 mins by LC-MS/MS analysis; format: ADME, Microsome; settings: read-out: Stabilty
[26] = molecular target: T10, Calcium/calmodulin-dependent protein kinase kinase 1 (Homo sapiens, UniProt Q8N5S9); test: Inhibition of human CAMKK1 in presence of ATP at Km level
T10 sequence (Q8N5S9 whole entry): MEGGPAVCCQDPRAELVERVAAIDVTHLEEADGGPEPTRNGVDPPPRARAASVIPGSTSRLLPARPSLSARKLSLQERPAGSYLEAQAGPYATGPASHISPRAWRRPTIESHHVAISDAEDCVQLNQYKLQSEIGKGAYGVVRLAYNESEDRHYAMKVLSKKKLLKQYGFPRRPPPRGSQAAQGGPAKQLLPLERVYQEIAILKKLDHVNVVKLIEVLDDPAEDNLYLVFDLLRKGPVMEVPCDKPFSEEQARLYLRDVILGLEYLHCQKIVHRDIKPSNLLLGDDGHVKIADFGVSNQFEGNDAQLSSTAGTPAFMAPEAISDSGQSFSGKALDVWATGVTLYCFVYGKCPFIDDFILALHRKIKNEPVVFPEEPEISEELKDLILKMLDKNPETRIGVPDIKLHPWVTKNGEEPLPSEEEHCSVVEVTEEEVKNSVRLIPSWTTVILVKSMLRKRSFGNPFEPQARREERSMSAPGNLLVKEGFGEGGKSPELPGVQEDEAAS

[27] = molecular target: T10, Calcium/calmodulin-dependent protein kinase kinase 1; test: Binding affinity to human CAMKK1 assessed as displacement of immobilized ligand by KINOMEscan scanMAX assay relative to control
[28] = molecular target: T8, Serine/threonine-protein kinase 17A; test: Binding affinity to human STK17A assessed as displacement of immobilized ligand by KINOMEscan scanMAX assay relative to control
[29] = molecular target: T9, Calcium/calmodulin-dependent protein kinase kinase 2; test: Binding affinity to human CAMKK2 incubated for 2 hrs by nano-BRET assay based cellular target engagement assay

T1 sequence (P30291 whole entry): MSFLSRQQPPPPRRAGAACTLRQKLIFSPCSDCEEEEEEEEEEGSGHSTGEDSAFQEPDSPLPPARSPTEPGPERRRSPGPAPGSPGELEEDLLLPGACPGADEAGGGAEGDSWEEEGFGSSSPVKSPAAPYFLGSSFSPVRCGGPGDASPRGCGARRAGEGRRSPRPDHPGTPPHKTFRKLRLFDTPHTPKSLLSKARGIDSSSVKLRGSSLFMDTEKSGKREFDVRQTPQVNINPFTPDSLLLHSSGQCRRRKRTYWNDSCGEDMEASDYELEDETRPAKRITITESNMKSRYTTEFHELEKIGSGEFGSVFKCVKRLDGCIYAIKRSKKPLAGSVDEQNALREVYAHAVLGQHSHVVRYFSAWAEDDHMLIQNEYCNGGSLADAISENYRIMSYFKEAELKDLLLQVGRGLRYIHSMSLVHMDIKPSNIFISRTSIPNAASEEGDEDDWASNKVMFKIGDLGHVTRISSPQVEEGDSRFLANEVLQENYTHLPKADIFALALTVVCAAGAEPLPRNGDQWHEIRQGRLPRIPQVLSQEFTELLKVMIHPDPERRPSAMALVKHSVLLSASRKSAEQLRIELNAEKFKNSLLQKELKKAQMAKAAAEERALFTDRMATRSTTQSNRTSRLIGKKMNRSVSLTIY

For `O=C(O)CSc1ncnc2cc(-c3cc4ccccc4s3)sc12`, the Kd (Wee1-like protein kinase [1]) was over 10000 nM, the IC50 [2] was over 10000 nM and the IC50 [3] was over 10000 nM. It also gave a Kd [4] of over 10000 nM, a solubility kinetic [5] of 5 µg/mL (≈ 13.9 µM) and a Kd [6] of 5.6 nM. For the same molecule, the IC50 [7] was over 10000 nM, the IC50 (Aurora kinase B [8]) was over 10000 nM and the IC50 (Aurora kinase B [9]) was 8900 nM. The IC50 [10] was 190 nM, the IC50 [11] was over 10000 nM and the IC50 [12] was over 10000 nM. It also gave a Kd [13] of 1500 nM, an IC50 [14] of over 10000 nM and a Kd [15] of over 10000 nM. For the same molecule, the IC50 [16] was 34 nM, the IC50 [17] was 34 nM and the Kd [18] was over 10000 nM. It also gave a Kd (Aurora kinase B [19]) of 110 nM, a Kd [20] of 21 nM and an IC50 (Wee1-like protein kinase [21]) of over 10000 nM. The IC50 [22] was 4700 nM, the IC50 [23] was over 10000 nM and the Kd [24] was 5.6 nM. For the same molecule, the remaining at 0.5 h, 100 µM [25] was 63%, the IC50 [26] was 5200 nM and the Kd [27] was 49 nM. It also gave a Kd [28] of 440 nM and an IC50 [29] of 2400 nM.

— ChEMBL document CHEMBL4715866, “A Chemical Probe for Dark Kinase STK17B Derives Its Potency and High Selectivity through a Unique P-Loop Conformation” (J Med Chem, 2020)
